“Also recorded” adds a separate entry of the source. Values belong to the compound of their own block, whether it stands above or below them. Non-standard residues stand in square brackets, D forms with d. Residues, ends and D or L forms follow the SMILES beside them. *: point of attachment. Sta = CC(C)C[C@H](N)[C@@H](O)CC(=O)O; Fmoc = O=C(OCC1c2ccccc2-c2ccccc21)*; Isovaleryl = CC(C)CC(=O)*
Legend:
[1] = target: T1, disrupted lysosomes isolated from the human B cell line EDR (TTCF processing activity) (Homo sapiens, UniProt Q99538); experiment: Digestion of TTCF by disrupted B cell lysosomes, SDS-PAGE readout; assay type: biochemical; conditions: for inhibition of lysosomal digestion of TTCF: inhibitor at 0.1 mg/ml, pH 4.5; for effect on lysosomal TTCF digestion activity: concentration not given, data not shown
T1 construct: disrupted lysosomes isolated from the human B cell line EDR; endogenous in cells; host or cells: human B cell line EDR, Percoll-gradient lysosomal fraction, disrupted
T1 sequence (Q99538 26-323 limits assumed): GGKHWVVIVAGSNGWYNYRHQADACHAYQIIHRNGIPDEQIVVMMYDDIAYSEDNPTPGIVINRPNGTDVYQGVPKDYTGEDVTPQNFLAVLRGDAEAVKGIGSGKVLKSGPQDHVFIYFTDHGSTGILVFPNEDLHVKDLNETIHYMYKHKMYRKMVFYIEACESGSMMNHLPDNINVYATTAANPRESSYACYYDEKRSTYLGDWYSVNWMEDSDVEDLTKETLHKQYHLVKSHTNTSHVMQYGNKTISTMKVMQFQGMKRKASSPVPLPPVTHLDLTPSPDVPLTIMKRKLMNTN
Description: The invention will now be described by reference to the following Examples and Figures wherein • Figure 1: Processing of TTCF by a leupeptin-insensitive cysteine endopeptidase activity. (a) TTCF was digested in vitro in the presence of disrupted lysosomes (1-2 µg) in the presence or absence of iodoacetamide (1 mM), leupeptin, E64 or pepstatin (each at 0.1 mg/ml). Digestions were in 0.1 M NH4 acetate at pH 4.5 or Na2HPO4, pH 6.0 or 7.0. After 4 hours at 37°C, the reactions were separated by Tris-tricine SDS-PAGE and stained with Coomassie Blue. (b) Cleavage sites: TTCF digestion products were separated by SDS PAGE and electrophoretically transferred to nitrocellulose membrane. Individual fragments numbered 1-6 were subjected to 5 cycles of Edman degradation. N-terminal sequence obtained is shown in bold following upstream residues from TTCF (tetanus toxin numbering). The N-terminal sequence of His-tagged TTCF was obtained for fragments 1 and 3. (c) Residues Asn 1184 and Glu 1184 in TTCF were mutated to alanine (see Methods) and digestions performed as before. The mutation abolishes cleavage at the mutated site but not at the first site (doublet at 47 kD). In this experiment cleavage of the third site was minimal. • Figure 2: TTCF is processed by an asparaginyl endopeptidase. (a) Chromatography of the TTCF processing activity on Mono-S resin. Fractions eluted by NaCl gradient were incubated with the substrates Z-Ala-Ala-Asn-NHMec or Z-Phe-Arg-NHMec in the presence or absence of E64 (trans-epoxysuccinyl-L-leucylamido-(4-guanidino)butane). […] (b) Fractions as above were incubated with 10 µg TTCF in the presence or absence of E64 for 4 hours at 37°C prior to SDS-PAGE analysis. (c) Each fraction was analysed by SDS-PAGE and Western blotting. Electrophoretically transferred material was probed with an affinity purified antiserum raised against the peptide KGIGSGKVLKSGPQC from human legumain^1. • Figure 3: Peptide inhibitors of AEP block asparaginyl endopeptidase activity and TTCF processing in vitro and in vivo. (a) TTCF was digested with purified AEP (legumain from pig kidney) in the presence or absence of 0.2 mg/ml of the peptides indicated. […] (b) Purified AEP or a crude lysosomal protease mixture were incubated with Z-Ala-Ala-Asn-NHMec, Z-Phe-Arg-NHMec (cathepsins L&B) or Z-Val-Val-Ala NHMec (cathepsin S) in the presence of increasing concentrations of AENK or AEQK. Release of 7-amino-4-methyl coumarin was measured after 10, 20 or 30 minutes. […] At different times the cells were washed, fixed in 0.05 % glutaraldehyde and co-cultured with autologous TTCF specific T cell clones. […] Proteins obtained from commercial sources, as described in the literature or custom peptides were digested with purified pig kidney legumain at pH 5.5 in the presence of 1 mM DTT. […] When present peptide was maintained during antigen pulsing at 1 mg/ml (a) or 2 mg/ml (b). At different times the cells were washed, fixed in 0.05 % glutaraldehyde and antigen presentation measured using proliferation of different autologous TTCF-specific T cell clones. c, AEP pre-processing of TTCF speeds antigen presentation. […] Presentation was measured after 60 minutes of antigen pulsing using EBV B cells.
[…]. […] Nor could we reproduce the lysosomal TTCF digestion pattern or indeed generate any of these fragments using purified cathepsins L, S, B, D or E , all of which have been implicated in the class II MHC antigen processing pathway (reviewed in refs 5 & 6).
TTCF processing activity. Lysosomal fractions from the human B cell line EDR were prepared on 27 % Percoll density gradients as previously described^8 using ^125I-labelled transferrin (internalised for 30 minutes at 37°C) and β-hexosaminidase to identify endosomal/plasma membrane and lysosomal fractions respectively. The peak of lysosomes was collected by centrifugation at 40,000 g for 1 hour, removed from the underlying Percoll pellet, collected again at 50,000 g for 1 hour and stored frozen. […]

AEP = experiment: Purified AEP; conditions: up to 30 minutes
[2] = Mono-S fractions of the partially purified TTCF processing activity from a crude B cell lysosome fraction; conditions: human, 37°C, up to 4 hours
[3] = system: purified AEP (legumain from pig kidney); experiment: Digestion of TTCF with purified AEP in the presence of tetrapeptides; assay type: biochemical; conditions: 0.2 mg/ml peptide; Fig 3a
Description: The invention will now be described by reference to the following Examples and Figures wherein • Figure 1: Processing of TTCF by a leupeptin-insensitive cysteine endopeptidase activity. (a) TTCF was digested in vitro in the presence of disrupted lysosomes (1-2 µg) in the presence or absence of iodoacetamide (1 mM), leupeptin, E64 or pepstatin (each at 0.1 mg/ml). Digestions were in 0.1 M NH4 acetate at pH 4.5 or Na2HPO4, pH 6.0 or 7.0. After 4 hours at 37°C, the reactions were separated by Tris-tricine SDS-PAGE and stained with Coomassie Blue. (b) Cleavage sites: TTCF digestion products were separated by SDS PAGE and electrophoretically transferred to nitrocellulose membrane. Individual fragments numbered 1-6 were subjected to 5 cycles of Edman degradation. N-terminal sequence obtained is shown in bold following upstream residues from TTCF (tetanus toxin numbering). The N-terminal sequence of His-tagged TTCF was obtained for fragments 1 and 3. (c) Residues Asn 1184 and Glu 1184 in TTCF were mutated to alanine (see Methods) and digestions performed as before. The mutation abolishes cleavage at the mutated site but not at the first site (doublet at 47 kD). In this experiment cleavage of the third site was minimal. • Figure 2: TTCF is processed by an asparaginyl endopeptidase. (a) Chromatography of the TTCF processing activity on Mono-S resin. Fractions eluted by NaCl gradient were incubated with the substrates Z-Ala-Ala-Asn-NHMec or Z-Phe-Arg-NHMec in the presence or absence of E64 (trans-epoxysuccinyl-L-leucylamido-(4-guanidino)butane). […] (b) Fractions as above were incubated with 10 µg TTCF in the presence or absence of E64 for 4 hours at 37°C prior to SDS-PAGE analysis. (c) Each fraction was analysed by SDS-PAGE and Western blotting. Electrophoretically transferred material was probed with an affinity purified antiserum raised against the peptide KGIGSGKVLKSGPQC from human legumain^1. • Figure 3: Peptide inhibitors of AEP block asparaginyl endopeptidase activity and TTCF processing in vitro and in vivo. […] Release of 7-amino-4-methyl coumarin was measured after 10, 20 or 30 minutes. […] At different times the cells were washed, fixed in 0.05 % glutaraldehyde and antigen presentation measured using proliferation of different autologous TTCF-specific T cell clones. c, AEP pre-processing of TTCF speeds antigen presentation. […] Presentation was measured after 60 minutes of antigen pulsing using EBV B cells.
We decided to test the possibility that high concentrations of asparagine containing peptides might act as competitive inhibitors. […] To establish that inhibition of AEP was specific, we measured the hydrolysis of different synthetic peptide substrates in the presence and absence of these tetrapeptides.

cathepsin L and/or B = experiment: Cleavage of Z-Phe-Arg-NHMec by Mono-S fractions of B cell lysosome extract; assay type: biochemical, human; conditions: presence or absence of E64, Fig 2a
Description: (§1) The invention will now be described by reference to the following Examples and Figures wherein • Figure 1: Processing of TTCF by a leupeptin-insensitive cysteine endopeptidase activity. (a) TTCF was digested in vitro in the presence of disrupted lysosomes (1-2 µg) in the presence or absence of iodoacetamide (1 mM), leupeptin, E64 or pepstatin (each at 0.1 mg/ml). Digestions were in 0.1 M NH4 acetate at pH 4.5 or Na2HPO4, pH 6.0 or 7.0. After 4 hours at 37°C, the reactions were separated by Tris-tricine SDS-PAGE and stained with Coomassie Blue. (b) Cleavage sites: TTCF digestion products were separated by SDS PAGE and electrophoretically transferred to nitrocellulose membrane. Individual fragments numbered 1-6 were subjected to 5 cycles of Edman degradation. N-terminal sequence obtained is shown in bold following upstream residues from TTCF (tetanus toxin numbering). […] (c) Each fraction was analysed by SDS-PAGE and Western blotting. […] Release of 7-amino-4-methyl coumarin was measured after 10, 20 or 30 minutes. […] At different times the cells were washed, fixed in 0.05 % glutaraldehyde and antigen presentation measured using proliferation of different autologous TTCF-specific T cell clones. c, AEP pre-processing of TTCF speeds antigen presentation. […] Presentation was measured after 60 minutes of antigen pulsing using EBV B cells. […]

[4] = target: T2, asparaginyl endopeptidase activity (Homo sapiens, UniProt Q99538); experiment: Cleavage of Z-Ala-Ala-Asn-NHMec by Mono-S fractions of B cell lysosome extract; assay type: biochemical; conditions: presence or absence of E64
T2 construct: We next partially purified the TTCF processing activity from a crude B cell lysosome fraction; endogenous in cells; host or cells: human B cell line EDR; membrane pellet solubilised in citrate/CHAPS, Mono-S cation-exchange fractions
T2 sequence (Q99538 26-323 limits assumed): T1 sequence (Q99538 26-323 limits assumed)
Description: as §1

TTCF processing activity = target: T3, TTCF processing activity (Homo sapiens, UniProt Q99538); experiment: TTCF processing by Mono-S fractions of B cell lysosome extract; assay type: biochemical; conditions: 10 µg TTCF, 4 hours at 37°C, Fig 2b
T3 construct: We next partially purified the TTCF processing activity from a crude B cell lysosome fraction; endogenous in cells; host or cells: human B cell line EDR; membrane pellet solubilised in citrate/CHAPS, Mono-S cation-exchange fractions
T3 sequence (Q99538 26-323 limits assumed): T1 sequence (Q99538 26-323 limits assumed)
Description: as §1

Compound: CC(C)CC(=O)N[C@H](C(=O)N[C@H](C(=O)N[C@@H](CC(C)C)[C@@H](O)CC(=O)N[C@@H](C)C(=O)N[C@@H](CC(C)C)[C@@H](O)CC(=O)O)C(C)C)C(C)C [pepstatin] (Isovaleryl-VV[Sta]A[Sta]-OH)
inhibition of lysosomal digestion of TTCF ([1]; 4 hours at 37°C, Fig 1a): could not inhibit

cleaved bond (AEP): Asn-NHMec, 10 minutes
cleaved bond [2]: Asn-7-(4-methyl)coumarylamide
Compound: Z-Ala-Ala-Asn-7-(4-methyl)coumarylamide

Compound: NCCCC[C@H](NC(=O)OCC1c2ccccc2-c2ccccc21)C(=O)N[C@@H](CCC(N)=O)C(=O)N[C@@H](CCC(N)=O)C(=O)N[C@@H](CCC(=O)O)C(N)=O [KQQE] (Fmoc-KQQE-NH2)
inhibition of processing of TTCF by AEP [3]: did not inhibit

Compound: CC(C)C[C@H](NC(=O)N1CCOCC1)C(=O)N[C@H](/C=C/S(=O)(=O)c1ccccc1)CCc1ccccc1 [LHVS]
effect on lysosomal TTCF digestion activity [1]: without effect

Compound: NC(=O)CI [iodoacetamide]
sensitivity of lysosomal TTCF digestion activity to inhibitor ([1]; iodoacetamide 1 mM, 4 hours at 37°C, Fig 1a): sensitive

Compound: CC(C)C[C@H](NC(=O)[C@H]1O[C@@H]1C(=O)O)C(=O)NCCCCNC(=N)N [E64, trans-epoxysuccinyl-L-leucylamido-(4-guanidino)butane]
inhibition of lysosomal digestion of TTCF ([1]; 4 hours at 37°C, Fig 1a): could not inhibit
inhibition of activity cleaving Z-Phe-Arg-NHMec (cathepsin L and/or B): completely inhibited
effect on cleavage of Z-Ala-Ala-Asn-NHMec [4]: no inhibitory effect; also recorded: unaffected
effect on TTCF processing activity (TTCF processing activity): unaffected

Compound: CCN1C(=O)C=CC1=O [N-ethyl maleimide]
effect on lysosomal TTCF digestion activity [1]: sensitive

Source: patent EP1066315B1 (University of Dundee, priority 1998, dated 2008)
